From patent publication US8178668B2, “2-aminopyridine kinase inhibitors” (OSI Pharmaceuticals, LLC, priority 2008, dated 2012)
Structures can show the parent of a compound that is named as a salt.

What was measured:
RON (human) = RON (human) (Homo sapiens, UniProt Q04912); assay: RON kinase AlphaScreen assay (Km of ATP); assay type: biochemical; settings: ATP at Km; at least duplicate experiments
How it was run: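 AlphaScreen with PT66 donor/acceptor beads, read after 1 h, detected phosphorylation of biotinylated poly(Glu,Tyr) by human RON. Enzyme-started reactions ran 30 min at room temperature with ATP at Km. Buffer was HEPES pH 7.4 with MgCl2, glycerol, vanadate and 1% DMSO.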

MET (human) = MET (human) (Homo sapiens, UniProt P08581); assay: MET kinase AlphaScreen assay (Km of ATP); assay type: biochemical; settings: ATP at Km; at least duplicate experiments
How it was run: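 AlphaScreen detection with PT66 beads (1 h) follows a 60 min room-temperature MET reaction. Substrate is 200 ng/μL biotinylated poly(Glu,Tyr), with ATP set at an enzyme-optimized concentration. Buffer is HEPES pH 7.4 with MgCl2, MnCl2 and 0.334 mM vanadate, compounds at 1% DMSO.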

MET (human), sequence (P08581 25-1390): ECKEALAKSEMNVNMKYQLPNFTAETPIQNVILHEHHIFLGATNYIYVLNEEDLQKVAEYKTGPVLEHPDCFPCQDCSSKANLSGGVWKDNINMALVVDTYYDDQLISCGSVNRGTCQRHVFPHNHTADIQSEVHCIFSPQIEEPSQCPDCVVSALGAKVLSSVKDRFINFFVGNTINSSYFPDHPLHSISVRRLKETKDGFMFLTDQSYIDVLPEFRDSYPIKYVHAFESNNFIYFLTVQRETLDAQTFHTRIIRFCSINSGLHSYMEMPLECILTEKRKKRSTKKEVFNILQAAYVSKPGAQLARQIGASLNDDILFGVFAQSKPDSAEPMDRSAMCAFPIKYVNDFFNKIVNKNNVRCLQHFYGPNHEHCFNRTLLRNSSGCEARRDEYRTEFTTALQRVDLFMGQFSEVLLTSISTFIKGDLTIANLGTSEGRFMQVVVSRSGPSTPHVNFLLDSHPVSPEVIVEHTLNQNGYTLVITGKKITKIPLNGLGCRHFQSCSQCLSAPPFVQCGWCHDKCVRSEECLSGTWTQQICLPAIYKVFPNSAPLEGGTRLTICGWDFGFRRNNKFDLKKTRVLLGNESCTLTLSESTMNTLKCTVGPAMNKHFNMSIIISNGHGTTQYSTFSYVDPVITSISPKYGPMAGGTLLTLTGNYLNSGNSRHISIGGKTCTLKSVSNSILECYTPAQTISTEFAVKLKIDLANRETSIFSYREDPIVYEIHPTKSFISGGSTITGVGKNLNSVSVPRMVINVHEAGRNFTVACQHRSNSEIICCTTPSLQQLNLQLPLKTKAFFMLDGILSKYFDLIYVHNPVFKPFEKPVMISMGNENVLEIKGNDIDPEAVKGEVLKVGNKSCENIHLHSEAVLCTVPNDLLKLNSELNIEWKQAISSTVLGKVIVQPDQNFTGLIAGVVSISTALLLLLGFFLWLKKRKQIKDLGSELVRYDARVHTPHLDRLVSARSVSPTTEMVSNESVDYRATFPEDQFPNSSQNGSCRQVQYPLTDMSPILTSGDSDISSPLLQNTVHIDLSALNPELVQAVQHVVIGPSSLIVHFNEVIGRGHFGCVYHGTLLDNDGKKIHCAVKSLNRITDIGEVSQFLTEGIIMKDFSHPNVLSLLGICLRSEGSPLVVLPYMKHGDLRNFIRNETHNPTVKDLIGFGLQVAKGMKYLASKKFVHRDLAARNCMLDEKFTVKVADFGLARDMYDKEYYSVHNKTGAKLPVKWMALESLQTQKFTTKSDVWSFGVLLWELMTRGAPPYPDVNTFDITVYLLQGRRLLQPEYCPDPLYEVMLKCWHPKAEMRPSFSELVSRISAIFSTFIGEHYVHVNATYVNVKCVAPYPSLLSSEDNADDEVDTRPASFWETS
RON (human), sequence (Q04912 25-1400): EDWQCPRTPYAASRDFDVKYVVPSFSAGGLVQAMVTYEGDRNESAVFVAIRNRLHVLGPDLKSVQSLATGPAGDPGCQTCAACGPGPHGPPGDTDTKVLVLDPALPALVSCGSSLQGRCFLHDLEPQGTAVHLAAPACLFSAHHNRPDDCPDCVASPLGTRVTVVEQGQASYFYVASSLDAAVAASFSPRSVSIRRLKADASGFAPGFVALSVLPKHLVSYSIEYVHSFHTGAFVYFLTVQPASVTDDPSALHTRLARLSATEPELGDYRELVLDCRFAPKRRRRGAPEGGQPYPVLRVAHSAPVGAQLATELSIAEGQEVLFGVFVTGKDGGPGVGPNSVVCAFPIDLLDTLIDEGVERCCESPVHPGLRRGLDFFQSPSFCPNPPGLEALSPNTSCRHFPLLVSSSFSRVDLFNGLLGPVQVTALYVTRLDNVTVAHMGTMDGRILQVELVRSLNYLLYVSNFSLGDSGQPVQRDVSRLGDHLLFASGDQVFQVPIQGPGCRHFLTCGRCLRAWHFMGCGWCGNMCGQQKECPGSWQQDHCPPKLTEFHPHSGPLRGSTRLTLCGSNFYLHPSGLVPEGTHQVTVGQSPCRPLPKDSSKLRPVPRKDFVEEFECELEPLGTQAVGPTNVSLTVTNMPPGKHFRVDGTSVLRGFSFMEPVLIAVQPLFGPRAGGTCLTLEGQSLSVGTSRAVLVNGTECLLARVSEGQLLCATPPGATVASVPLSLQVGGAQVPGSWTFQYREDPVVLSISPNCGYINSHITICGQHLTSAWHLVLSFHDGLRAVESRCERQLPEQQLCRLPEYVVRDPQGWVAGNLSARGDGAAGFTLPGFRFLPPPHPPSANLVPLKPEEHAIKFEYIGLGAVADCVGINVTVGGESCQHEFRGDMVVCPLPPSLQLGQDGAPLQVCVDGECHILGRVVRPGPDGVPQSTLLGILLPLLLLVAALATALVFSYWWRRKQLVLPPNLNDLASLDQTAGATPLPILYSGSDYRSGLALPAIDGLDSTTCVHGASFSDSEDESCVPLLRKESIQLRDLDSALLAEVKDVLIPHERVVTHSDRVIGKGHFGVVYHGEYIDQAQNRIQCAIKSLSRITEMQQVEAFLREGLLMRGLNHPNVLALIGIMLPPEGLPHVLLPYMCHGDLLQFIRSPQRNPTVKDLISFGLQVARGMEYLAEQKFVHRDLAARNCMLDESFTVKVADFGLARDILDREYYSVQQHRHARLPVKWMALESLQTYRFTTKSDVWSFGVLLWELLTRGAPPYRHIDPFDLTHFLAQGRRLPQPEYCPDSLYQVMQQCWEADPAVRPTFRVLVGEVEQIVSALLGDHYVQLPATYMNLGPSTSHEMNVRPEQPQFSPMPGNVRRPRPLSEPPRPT

Structure (SMILES)	IC50 (RON (human)) [nM]	IC50 (MET (human)) [nM]
C[C@@H]1CN(C(=O)c2cccc(-c3cnc(N)c(-c4nc5ccccc5s4)c3)c2)C[C@H](C)N1C [Example 228, [3-(6-Amino-5-benzothiazol-2-ylpyridin-3-yl)phenyl]-(cis-3,4,5-trimethylpiperazin-1-yl)methanone]	1000 to 20000	100 to 1000
Nc1ncc(-c2cc3ccccc3[nH]2)cc1-c1nc2ccccc2s1 [Example 229, 3-(1,3-Benzothiazol-2-yl)-5-(1H-indol-2-yl)pyridin-2-amine]	1000 to 20000	1000 to 20000
Nc1ncc(-c2ccc[nH]2)cc1-c1nc2ccccc2s1 [Example 230, 3-(1,3-Benzothiazol-2-yl)-5-(1H-pyrrol-2-yl)pyridin-2-amine]	1000 to 20000	1000 to 20000
CS(=O)(=O)Nc1ccc(-c2cnc(N)c(-c3nc4ccccc4s3)c2)cc1 [Example 231, N-4-[6-Amino-5-(1,3-benzothiazol-2-yl)pyridin-3-yl]phenylmethanesulfonamide]	1000 to 20000	1000 to 20000
Nc1ncc(C2=CCNCC2)cc1-c1nc2ccccc2s1 [Example 232, 5-(1,3-Benzothiazol-2-yl)-1′,2′,3′,6′-tetrahydro-3,4′-bipyridin-6-amine]	1000 to 20000	100 to 1000
Nc1ncc(-c2cccc(O)c2)cc1-c1nc2ccccc2s1 [Example 233, 3-[6-Amino-5-(1,3-benzothiazol-2-yl)pyridin-3-yl]phenol]	> 20000	1000 to 20000
COC(=O)COc1cccc(-c2cnc(N)c(-c3nc4ccccc4s3)c2)c1 [Example 234, Methyl 3-[6-amino-5-(1,3-benzothiazol-2-yl)pyridin-3-yl]phenoxyacetate]	> 20000	1000 to 20000
Nc1ncc(-c2cccc(OCC(=O)O)c2)cc1-c1nc2ccccc2s1 [Example 235, [3-(6-Amino-5-benzothiazol-2-yl-pyridin-3-yl)-phenoxy]acetic acid]	1000 to 20000	1000 to 20000
CCOC(=O)COc1ccc(-c2cnc(N)c(-c3nc4ccccc4s3)c2)cc1 [Example 236, Ethyl 4-[6-amino-5-(1,3-benzothiazol-2-yl)pyridin-3-yl]phenoxyacetate]	1000 to 20000	1000 to 20000
Nc1ncc(-c2ccc(OCC(=O)O)cc2)cc1-c1nc2ccccc2s1 [Example 237, 4-[6-Amino-5-(1,3-benzothiazol-2-yl)pyridin-3-yl]phenoxyacetic acid]	1000 to 20000	100 to 1000
CNC(=O)COc1ccc(-c2cnc(N)c(-c3nc4ccccc4s3)c2)cc1 [Example 238, 2-[4-(6-Amino-5-benzothiazol-2-ylpyridin-3-yl)-phenoxy]-N-methylacetamide]	1000 to 20000	1000 to 20000
CN(C)C(=O)COc1ccc(-c2cnc(N)c(-c3nc4ccccc4s3)c2)cc1 [Example 239, 2-[4-(6-Amino-5-benzothiazol-2-ylpyridin-3-yl)-phenoxy]-N,N-dimethylacetamide]	1000 to 20000	1000 to 20000
Nc1ncc(-c2ccc(OCC(=O)NCc3ccccc3)cc2)cc1-c1nc2ccccc2s1 [Example 240, 2-[4-(6-Amino-5-benzothiazol-2-ylpyridin-3-yl)-phenoxy]-N-benzylacetamide]	1000 to 20000	1000 to 20000
Nc1ncc(-c2ccc(OCC(=O)N3CCCC3)cc2)cc1-c1nc2ccccc2s1 [Example 241, 2-[4-(6-Amino-5-benzothiazol-2-ylpyridin-3-yl)phenoxy]-1-pyrrolidin-1-ylethanone]	> 20000	1000 to 20000
Nc1ncc(-c2ccc(OCC(=O)NCCCN3CCCC3=O)cc2)cc1-c1nc2ccccc2s1 [Example 242, 2-[4-(6-Amino-5-benzothiazol-2-ylpyridin-3-yl)-phenoxy]-N-[3-(2-oxopyrrolidin-1-yl)-propyl]acetamide]	1000 to 20000	1000 to 20000
Nc1ncc(-c2ccc(OCC(=O)NC3CCCCC3O)cc2)cc1-c1nc2ccccc2s1 (stereo not shown) [Example 243, 2-[4-(6-Amino-5-benzothiazol-2-ylpyridin-3-yl)phenoxy]-N-(2-hydroxycyclohexyl)acetamide]	> 20000	1000 to 20000
Nc1ncc(-c2ccc(OCC(=O)N3CCOCC3)cc2)cc1-c1nc2ccccc2s1 [Example 244, 2-[4-(6-Amino-5-benzothiazol-2-ylpyridin-3-yl)phenoxy]-1-morpholin-4-ylethanone]	> 20000	1000 to 20000
Nc1ncc(-c2ccc(OCC(=O)NCC3CCCCC3)cc2)cc1-c1nc2ccccc2s1 [Example 245, 2-[4-(6-Amino-5-benzothiazol-2-ylpyridin-3-yl)phenoxy]-N-cyclohexylmethylacetamide]	> 20000	1000 to 20000
Nc1ncc(-c2ccc(OCC(=O)N3CCN(CCO)CC3)cc2)cc1-c1nc2ccccc2s1 [Example 246, 2-[4-(6-Amino-5-benzothiazol-2-yl-pyridin-3-yl)phenoxy]-1-[4-(2-hydroxyethyl)piperazin-1-yl]ethanone]	1000 to 20000	100 to 1000
Nc1ncc(-c2cnn(C3CCNCC3)c2)cc1-c1nc2cccc(-c3cn[nH]c3)c2s1 [Example 247, 5-(1-Piperidin-4-yl-1H-pyrazol-4-yl)-3-[7-(1H-pyrazol-4-yl)benzothiazol-2-yl]pyridin-2-ylamine dihydrochloride]	100 to 1000	≤ 100
Cn1cc(-c2cccc3nc(-c4cc(-c5cnn(C6CCNCC6)c5)cnc4N)sc23)cn1 [Example 248, 3-[7-(1-Methyl-1H-pyrazol-4-yl)benzothiazol-2-yl]-5-(1-piperidin-4-yl-1H-pyrazol-4-yl)pyridin-2-ylamine dihydrochloride]	100 to 1000	100 to 1000
Nc1ncc(-c2cnn(C3CCNCC3)c2)cc1-c1nc2cccc(-c3ccc[nH]3)c2s1 [Example 249, 5-(1-Piperidin-4-yl-1H-pyrazol-4-yl)-3-[7-(1H-pyrrol-2-yl)benzothiazol-2-yl]pyridin-2-ylamine dihydrochloride]	100 to 1000	≤ 100
Nc1ncc(-c2cnn(C3CCNCC3)c2)cc1-c1nc2cccc(-c3cccnc3)c2s1 [Example 250, 5-(1-Piperidin-4-yl-1H-pyrazol-4-yl)-3-(7-pyridin-3-ylbenzothiazol-2-yl)pyridin-2-ylamine dihydrochloride]	100 to 1000	≤ 100
Nc1ncc(-c2cnn(C3CCNCC3)c2)cc1-c1nc2cccc(-c3cc[nH]c3)c2s1 [Example 251, 5-(1-Piperidin-4-yl-1H-pyrazol-4-yl)-3-[7-(1H-pyrrol-3-yl)benzothiazol-2-yl]pyridin-2-ylamine trifluoroacetate]	100 to 1000	100 to 1000

Other lines, results leading:

IC50 (RON (human)) [nM]	IC50 (MET (human)) [nM]	Structure (SMILES)
100 to 1000	100 to 1000	Nc1ncc(-c2cnn(C3CCNCC3)c2)cc1-c1nc2ccc(F)cc2s1 [Example 252, 3-(6-Fluorobenzothiazol-2-yl)-5-(1-piperidin-4-yl-1H-pyrazol-4-yl)-pyridin-2-ylamine]
100 to 1000	100 to 1000	Nc1ncc(-c2cnn(C3CCNCC3)c2)cc1-c1nc2ccc(Cl)cc2s1 [Example 253, 3-(6-Chlorobenzothiazol-2-yl)-5-(1-piperidin-4-yl-1H-pyrazol-4-yl)-pyridin-2-ylamine]
100 to 1000	100 to 1000	Cc1ccc2nc(-c3cc(-c4cnn(C5CCNCC5)c4)cnc3N)sc2c1 [Example 254, 3-(6-Methylbenzothiazol-2-yl)-5-(1-piperidin-4-yl-1H-pyrazol-4-yl)-pyridin-2-ylamine]
100 to 1000	100 to 1000	COc1ccc2nc(-c3cc(-c4cnn(C5CCNCC5)c4)cnc3N)sc2c1 [Example 255, 3-(6-Methoxybenzothiazol-2-yl)-5-(1-piperidin-4-yl-1H-pyrazol-4-yl)-pyridin-2-ylamine]
100 to 1000	≤ 100	Nc1ncc(-c2cnn(C3CCNCC3)c2)cc1-c1nc2c(F)cccc2s1 [Example 256, 3-(4-Fluorobenzothiazol-2-yl)-5-(1-piperidin-4-yl-1H-pyrazol-4-yl)-pyridin-2-ylamine]
100 to 1000	100 to 1000	Cc1cccc2sc(-c3cc(-c4cnn(C5CCNCC5)c4)cnc3N)nc12 [Example 257, 3-(4-Methylbenzothiazol-2-yl)-5-(1-piperidin-4-yl-1H-pyrazol-4-yl)-pyridin-2-ylamine]
100 to 1000	≤ 100	Nc1ncc(-c2cnn(C3CCNCC3)c2)cc1-c1nc2cc(Cl)ccc2s1 [Example 258, 3-(5-Chlorobenzothiazol-2-yl)-5-(1-piperidin-4-yl-1H-pyrazol-4-yl)-pyridin-2-ylamine]
≤ 100	≤ 100	Nc1ncc(-c2cnn(C3CCNCC3)c2)cc1-c1nc2cccc(Cl)c2s1 [Example 259, 3-(7-Chlorobenzothiazol-2-yl)-5-(1-piperidin-4-yl-1H-pyrazol-4-yl)-pyridin-2-ylamine]
100 to 1000	100 to 1000	Nc1ncc(-c2cnn(C3CCNCC3)c2)cc1-c1nc2cccc(C(F)(F)F)c2s1 [Example 260, 5-(1-Piperidin-4-yl-1H-pyrazol-4-yl)-3-(7-trifluoromethylbenzothiazol-2-yl)-pyridin-2-ylamine]
100 to 1000	100 to 1000	Nc1ncc(-c2cnn(C3CCNCC3)c2)cc1-c1nc2cc(C(F)(F)F)ccc2s1 [Example 261, 5-(1-Piperidin-4-yl-1H-pyrazol-4-yl)-3-(5-trifluoromethylbenzothiazol-2-yl)-pyridin-2-ylamine]
100 to 1000	100 to 1000	Nc1ncc(-c2cnn(C3CCNCC3)c2)cc1-c1nc2c(C(F)(F)F)cccc2s1 [Example 262, 5-(1-Piperidin-4-yl-1H-pyrazol-4-yl)-3-(4-trifluoromethylbenzothiazol-2-yl)-pyridin-2-ylamine]
